From ChEMBL document CHEMBL5154811, “Discovery of SPH5030, a Selective, Potent, and Irreversible Tyrosine Kinase Inhibitor for HER2-Amplified and HER2-Mutant Cancer Treatment” (J Med Chem, 2022)

test system: BT-474; assay: Antiproliferative activity against human BT-474 cells assessed as inhibition of cell growth incubated for 72 hrs by Celltiter-Glo assay; assay type: functional, cell-based; details: BT-474, 72 h

IC50	Structure (SMILES)
369 nM	COCC(=O)NC/C=C/c1ccc2ncc(C#N)c(Nc3ccc(Oc4cc5nncn5cn4)c(C)c3)c2c1
3.88 nM	C=C(F)C(=O)Nc1cc2c(Nc3ccc(Oc4cc5nncn5cn4)c(C)c3)ncnc2cc1OCC
7.44 nM	Cc1cc(Nc2c(C#N)cnc3ccc(NC(=O)/C=C/[C@H]4CCCN4C)cc23)ccc1Oc1cc2nncn2cn1
3.36 nM	CCOc1cc2ncnc(Nc3ccc(Oc4cc5nncn5cn4)c(C)c3)c2cc1NC(=O)/C(F)=C\[C@H]1CCCN1C
3.06 nM	Cc1cc(Nc2ncnc3ccc(NC(=O)/C=C/[C@H]4CCCN4C)cc23)ccc1Oc1cc2nncn2cn1
50 nM	COCC(=O)NC/C=C/c1ccc2ncnc(Nc3ccc(Oc4cc5nncn5cn4)c(C)c3)c2c1

test system: NCI-N87; assay: Antiproliferative activity against human NCI-N87 cells assessed as inhibition of cell growth incubated for 72 hrs by Celltiter-Glo assay; assay type: functional, cell-based; details: NCI-N87, 72 h

Structure (SMILES)	IC50
COCC(=O)NC/C=C/c1ccc2ncc(C#N)c(Nc3ccc(Oc4cc5nncn5cn4)c(C)c3)c2c1	441 nM
C=C(F)C(=O)Nc1cc2c(Nc3ccc(Oc4cc5nncn5cn4)c(C)c3)ncnc2cc1OCC	6.56 nM
Cc1cc(Nc2c(C#N)cnc3ccc(NC(=O)/C=C/[C@H]4CCCN4C)cc23)ccc1Oc1cc2nncn2cn1	6.7 nM
Cc1cc(Nc2ncnc3ccc(NC(=O)/C=C/[C@H]4CCCN4C)cc23)ccc1Oc1cc2nncn2cn1	2.17 nM
COCC(=O)NC/C=C/c1ccc2ncnc(Nc3ccc(Oc4cc5nncn5cn4)c(C)c3)c2c1	80.7 nM

biological target: Receptor tyrosine-protein kinase erbB-2 (Homo sapiens, UniProt P04626); assay: Inhibition of wild type human GST-tagged HER2 (676 to end residues) expressed in baculovirus infected Sf9 cells incubated for 30 mins in presence of ATP by HTRF analysis; details: not given
Sequence (P04626 whole entry): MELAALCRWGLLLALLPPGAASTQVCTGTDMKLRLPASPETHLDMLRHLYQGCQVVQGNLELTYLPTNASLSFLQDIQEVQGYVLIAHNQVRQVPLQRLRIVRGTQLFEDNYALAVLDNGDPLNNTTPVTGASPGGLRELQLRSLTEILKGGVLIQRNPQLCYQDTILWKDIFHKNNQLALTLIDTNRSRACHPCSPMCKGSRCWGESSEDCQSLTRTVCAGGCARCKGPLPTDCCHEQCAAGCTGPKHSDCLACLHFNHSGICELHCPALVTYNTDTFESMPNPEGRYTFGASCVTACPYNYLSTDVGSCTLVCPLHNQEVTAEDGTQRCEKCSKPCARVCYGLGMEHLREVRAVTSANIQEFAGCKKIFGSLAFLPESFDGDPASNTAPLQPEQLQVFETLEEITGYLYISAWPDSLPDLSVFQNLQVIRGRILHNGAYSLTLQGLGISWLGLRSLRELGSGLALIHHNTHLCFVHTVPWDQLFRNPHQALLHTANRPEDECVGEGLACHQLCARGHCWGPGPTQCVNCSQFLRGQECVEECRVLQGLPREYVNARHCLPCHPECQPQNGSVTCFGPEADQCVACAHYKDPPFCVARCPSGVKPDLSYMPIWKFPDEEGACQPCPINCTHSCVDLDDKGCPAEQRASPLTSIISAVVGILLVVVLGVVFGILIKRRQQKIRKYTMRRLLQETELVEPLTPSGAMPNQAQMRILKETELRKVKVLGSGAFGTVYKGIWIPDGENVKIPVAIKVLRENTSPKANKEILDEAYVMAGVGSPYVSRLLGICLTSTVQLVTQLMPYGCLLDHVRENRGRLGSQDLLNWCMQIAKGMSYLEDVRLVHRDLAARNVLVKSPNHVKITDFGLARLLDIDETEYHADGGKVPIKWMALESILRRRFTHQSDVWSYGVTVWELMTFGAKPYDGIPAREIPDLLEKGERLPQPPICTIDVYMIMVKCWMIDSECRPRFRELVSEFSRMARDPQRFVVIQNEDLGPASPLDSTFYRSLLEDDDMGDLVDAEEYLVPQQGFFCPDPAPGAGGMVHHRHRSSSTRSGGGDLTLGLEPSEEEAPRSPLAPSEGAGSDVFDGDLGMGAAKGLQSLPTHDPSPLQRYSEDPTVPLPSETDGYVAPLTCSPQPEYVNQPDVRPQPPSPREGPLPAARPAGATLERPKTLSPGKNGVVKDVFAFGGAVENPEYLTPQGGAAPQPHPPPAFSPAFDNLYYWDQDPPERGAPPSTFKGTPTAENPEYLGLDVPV

IC50	Structure (SMILES)
4.05 nM	C=C(F)C(=O)Nc1cc2c(Nc3ccc(Oc4cc5nncn5cn4)c(C)c3)ncnc2cc1OCC
10.8 nM	Cc1cc(Nc2c(C#N)cnc3ccc(NC(=O)/C=C/[C@H]4CCCN4C)cc23)ccc1Oc1cc2nncn2cn1
7.3 nM	CCOc1cc2ncnc(Nc3ccc(Oc4cc5nncn5cn4)c(C)c3)c2cc1NC(=O)/C(F)=C\[C@H]1CCCN1C
1.4 nM	Cc1cc(Nc2ncnc3ccc(NC(=O)/C=C/[C@H]4CCCN4C)cc23)ccc1Oc1cc2nncn2cn1
2.55 nM	COCC(=O)NC/C=C/c1ccc2ncnc(Nc3ccc(Oc4cc5nncn5cn4)c(C)c3)c2c1

test system: not listed separately; assay: Metabolic stability in human liver microsomes assessed as intrinsic clearance at 1 uM preincubated for 5 mins followed by NADPH addition by LC-MS/MS analysis; assay type: ADME, Microsome; details: read-out: CLH

microsomal CLint at 1 µM	Structure (SMILES)
40 µL/min/mg	C=C(F)C(=O)Nc1cc2c(Nc3ccc(Oc4cc5nncn5cn4)c(C)c3)ncnc2cc1OCC
24.2 µL/min/mg	CCOc1cc2ncnc(Nc3ccc(Oc4cc5nncn5cn4)c(C)c3)c2cc1NC(=O)/C(F)=C\[C@H]1CCCN1C

biological target: Epidermal growth factor receptor (Homo sapiens, UniProt P00533); assay: Inhibition of wild type human N-terminal GST tagged EGFR (669 to 1210 residues) expressed in Sf21 insect cells incubated for 30 mins in presence of ATP by HTRF analysis; details: not given
Sequence (P00533 whole entry, the tested form may be a part): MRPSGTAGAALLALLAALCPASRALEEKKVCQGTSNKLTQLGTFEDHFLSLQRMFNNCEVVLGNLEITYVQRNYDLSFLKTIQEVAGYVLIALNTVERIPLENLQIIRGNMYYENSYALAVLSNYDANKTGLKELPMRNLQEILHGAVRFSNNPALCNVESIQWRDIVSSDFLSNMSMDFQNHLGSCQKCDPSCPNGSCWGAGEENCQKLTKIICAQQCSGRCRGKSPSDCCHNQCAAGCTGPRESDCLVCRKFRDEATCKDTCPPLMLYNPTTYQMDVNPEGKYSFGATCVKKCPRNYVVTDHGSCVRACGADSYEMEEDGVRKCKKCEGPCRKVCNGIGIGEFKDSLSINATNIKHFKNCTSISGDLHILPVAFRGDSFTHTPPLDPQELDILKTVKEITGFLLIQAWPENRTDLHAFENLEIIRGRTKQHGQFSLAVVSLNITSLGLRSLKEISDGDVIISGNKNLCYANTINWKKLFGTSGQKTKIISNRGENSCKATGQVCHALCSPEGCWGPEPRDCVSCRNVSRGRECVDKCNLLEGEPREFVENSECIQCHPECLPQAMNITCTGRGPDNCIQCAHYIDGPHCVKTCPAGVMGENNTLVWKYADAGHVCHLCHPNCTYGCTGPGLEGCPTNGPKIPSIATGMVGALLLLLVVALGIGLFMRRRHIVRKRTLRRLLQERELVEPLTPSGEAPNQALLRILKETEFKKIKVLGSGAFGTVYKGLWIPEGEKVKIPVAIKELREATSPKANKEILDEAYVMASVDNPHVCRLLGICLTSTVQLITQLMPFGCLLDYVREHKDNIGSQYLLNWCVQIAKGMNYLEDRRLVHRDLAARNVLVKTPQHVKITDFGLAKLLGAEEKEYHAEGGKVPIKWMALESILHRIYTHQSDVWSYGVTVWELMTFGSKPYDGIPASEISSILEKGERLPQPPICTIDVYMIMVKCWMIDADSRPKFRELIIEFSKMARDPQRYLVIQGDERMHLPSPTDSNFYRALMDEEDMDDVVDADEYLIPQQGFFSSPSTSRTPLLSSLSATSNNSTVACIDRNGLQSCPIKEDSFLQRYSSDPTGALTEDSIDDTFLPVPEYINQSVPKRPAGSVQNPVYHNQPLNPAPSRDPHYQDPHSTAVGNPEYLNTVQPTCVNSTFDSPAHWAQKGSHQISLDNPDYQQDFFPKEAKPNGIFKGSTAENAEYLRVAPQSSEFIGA

IC50	Structure (SMILES)
1830 nM	COCC(=O)NC/C=C/c1ccc2ncc(C#N)c(Nc3ccc(Oc4cc5nncn5cn4)c(C)c3)c2c1
9.6 nM	C=C(F)C(=O)Nc1cc2c(Nc3ccc(Oc4cc5nncn5cn4)c(C)c3)ncnc2cc1OCC
3.13 nM	Cc1cc(Nc2c(C#N)cnc3ccc(NC(=O)/C=C/[C@H]4CCCN4C)cc23)ccc1Oc1cc2nncn2cn1
86.3 nM	CCOc1cc2ncnc(Nc3ccc(Oc4cc5nncn5cn4)c(C)c3)c2cc1NC(=O)/C(F)=C\[C@H]1CCCN1C
1.19 nM	Cc1cc(Nc2ncnc3ccc(NC(=O)/C=C/[C@H]4CCCN4C)cc23)ccc1Oc1cc2nncn2cn1
110 nM	COCC(=O)NC/C=C/c1ccc2ncnc(Nc3ccc(Oc4cc5nncn5cn4)c(C)c3)c2c1

test system: not listed separately; assay: Metabolic stability in human liver microsomes assessed as half life at 1 uM preincubated for 5 mins followed by NADPH addition by LC-MS/MS analysis; assay type: ADME, Microsome; details: not given

half-life at 1 µM	Structure (SMILES)
34.6 min	C=C(F)C(=O)Nc1cc2c(Nc3ccc(Oc4cc5nncn5cn4)c(C)c3)ncnc2cc1OCC
57.2 min	CCOc1cc2ncnc(Nc3ccc(Oc4cc5nncn5cn4)c(C)c3)c2cc1NC(=O)/C(F)=C\[C@H]1CCCN1C
